Here are results for nine compounds from PubChem BioAssay (NCI).

SMILES strings stand for the structures. Where “and” joins values, the source holds several entries; their conditions need not be identical. Equal values may be shown once.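 A five-concentration, 48-hour dose response in 96-well plates underlies each endpoint, interpolated linearly between surrounding concentrations. Here, GI50 denotes the concentration required for 50% inhibition of growth. TGI: concentration producing complete growth inhibition.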

Common to all, as to assay: NCI-60 cell line screen, 48 h
Experiment [1] concerns SF-268 CNS.
In experiment [2] the test system is MDA-MB-435.
Experiment [3] relates to MCF7 breast.
Experiment [4] concerns OVCAR-4 ovarian.
The subject of experiment [5] is SK-MEL-2 melanoma.
Experiment [6] has as its system SK-MEL-28 melanoma.
Experiment [7] has as its system SW-620 colon.
For experiment [8], the system named is LOX IMVI melanoma.
For experiment [9], the system named is HOP-92 NSCLC.
The test system of experiment [10] is SR leukemia.

Regarding `CC12CCC(Br)C(C)(C)C1CC=C1C(=O)OCC1O2` (configuration not stated), the TGI in [1] stood at 31.9 µM; in experiment [2] it was 35.6 µM; in experiment [3], 22.7 µM; in experiment [4] it was 42.3 µM; in [5], 28.6 µM; in experiment [6], 28.6 µM. The TGI in experiment [7] was 32.8 µM; in experiment [8], 30.4 µM; in experiment [9], 34.1 µM; in experiment [10], 31.2 µM.

`Cc1cn(-c2cc(NC(=O)c3ccc(C)c(Nc4nccc(-c5cccnc5)n4)c3)cc(C(F)(F)F)c2)cn1`: the GI50 in [1] is 5.78 µM and 3.45 µM; in experiment [2] it was 1.79 µM and 1.57 µM; in [3] it was 2.49 µM and 2.35 µM; in [4], 5.15 µM and 2.39 µM; in experiment [5], 2.19 µM and 2.1 µM; in experiment [6] it was 1.81 µM and 1.4 µM. For the same compound, the GI50 in [7] is 4.44 µM and 3.43 µM; in experiment [8], 2.77 µM and 5.57 µM; in experiment [10], 3.06 µM and 2.67 µM. Moreover, the TGI in experiment [1] was > 10 µM and 15.2 µM; in experiment [2] it was 4.65 µM and 4.76 µM; in experiment [3], 7.39 µM and 7.55 µM; in [4], > 10 µM and 7.32 µM; in [5], > 10 µM and 10.4 µM; in experiment [6], 5.97 µM and 3.18 µM. Besides, the TGI was > 40.9 µM in [7]; > 10 µM and 26.5 µM in experiment [8]; > 100 µM in experiment [9]; > 10 µM and 26.9 µM in [10].

Turning to `COc1cc(-c2nc(SCCC(C)C)nc(Nc3ccc(S(N)(=O)=O)cc3)c2C#N)cc(OC)c1OC`, the GI50 in experiment [1] was 3.67 µM; in [2], 3.15 µM; in experiment [3] it was 3.19 µM; in experiment [4], 3.45 µM; in [5] it was 2.47 µM; in experiment [6], 4.04 µM. Further, the GI50 in experiment [7] is 3.08 µM; in experiment [8], 1.91 µM; in [9], 1.48 µM; in experiment [10] it was 1.91 µM. The TGI in experiment [1] is > 100 µM; in [2] it was > 100 µM; in [3] it was > 100 µM; in experiment [4], > 100 µM; in experiment [5], 6.16 µM; in [6] it was > 100 µM. Besides, the TGI is > 100 µM in experiment [7], 4.41 µM in experiment [8], 4.47 µM in experiment [9] and 6.86 µM in [10].

Take `CCCCCCCc1cc2c3c(nc4ccccc42)C(=O)c2cccnc2-c3n1`: the GI50 in experiment [1] is 5.48 µM; in experiment [2] it was 1.96 µM; in experiment [3], 1.54 µM; in experiment [4], 5.74 µM; in experiment [5], 12.3 µM; in [6], 5.75 µM. In addition, the GI50 is 1.5 µM in experiment [7], 2.19 µM in experiment [8], 6.34 µM in experiment [9] and 3.02 µM in experiment [10]. For the same compound, the TGI in [1] worked out at 11.8 µM; in experiment [2], 4.33 µM; in experiment [3], 5.92 µM; in experiment [4] it was 13.8 µM; in experiment [5], 27.2 µM; in experiment [6], 11 µM. In addition, the TGI in experiment [7] was found to be 6.34 µM; in experiment [8], 7.29 µM; in [9], 17 µM; in experiment [10], 10.7 µM.

For `O=C1C[C@@H]2/C(=C(O)\C=C\c3ccccc3)C(=O)C=C[C@@H]2O1`, the GI50 was 2.09 µM in experiment [1]; 1.61 µM in experiment [2]; 0.83 µM in experiment [3]; 3.64 µM in experiment [4]; 1.77 µM in experiment [5]; 2.33 µM in experiment [6]. In addition, the GI50 is 0.485 µM in experiment [7], 0.214 µM in experiment [8], 1.59 µM in experiment [9] and 0.464 µM in [10]. Moreover, the TGI was 6.14 µM in [1]; 3.49 µM in experiment [2]; 13.5 µM in [3]; 13 µM in experiment [4]; 3.56 µM in experiment [5]; 6.56 µM in experiment [6]. Besides, the TGI was found to be 4.94 µM in experiment [7], 0.485 µM in [8], 3.21 µM in experiment [9] and 17 µM in experiment [10].

Turning to `NCCCNCCCCNC(=O)C(O)NC(=O)CCCCCCN=C(N)N` (configuration not stated), the GI50 is 3070 µM in experiment [1]; 1960 µM in [2]; 1750 µM in [3]; 2490 µM in [4]; 2040 µM in [5]; > 3670 µM in experiment [6]. Also, the GI50 in [7] is 1900 µM; in experiment [8], 828 µM; in [9] it was 2660 µM; in [10], 530 µM. The TGI in experiment [1] was > 5000 µM; in experiment [2] it was > 3760 µM; in [3] it was 750 µM and > 5000 µM; in experiment [4], 619 µM and > 2810 µM; in experiment [5] it was 750 µM and 3420 µM; in experiment [6] it was > 5000 µM. Further, the TGI in experiment [7] is > 5000 µM; in experiment [8], 750 µM and 1570 µM; in experiment [9] it was 745 µM and > 4350 µM; in experiment [10] it was 750 µM and > 4240 µM.

Turning to `Cc1cc(C)c(-n2c(-c3ccc(Br)cc3)cs/c2=N\N=C2C=C(C(C)(C)C)C(=O)C(C(C)(C)C)=C2)c(C)c1`, the TGI in [1], in [2], in experiment [3], in experiment [4], in experiment [5] and in experiment [6] was > 100 µM throughout. Also, the TGI in experiment [7] was > 100 µM; in experiment [8], > 100 µM; in [9], > 89.8 µM; in experiment [10] it was > 100 µM.

As to `COc1ccc2c(c1)C(=O)c1c-2n(CCCI)c(=O)c2cc([N+](=O)[O-])ccc12`, the GI50 in experiment [1] was 0.161 µM and 0.141 µM; in [2], 0.449 µM and 1.49 µM; in experiment [3] it was 0.0105 µM and 0.0343 µM; in experiment [4], 1.03 µM and 3.72 µM; in experiment [5] it was 8.01 µM and 16.4 µM; in experiment [6], 0.861 µM and 3.07 µM. Also, the GI50 in [7] was 0.0524 µM and 0.0345 µM; in [8], 0.0743 µM and 0.0432 µM; in [9], 0.0738 µM and 0.715 µM; in experiment [10] it was 0.005 µM. Besides, the TGI was 44.4 µM and > 100 µM in [1]; 5.43 µM and 16.5 µM in experiment [2]; 11.9 µM and 84.3 µM in [4]; 47.2 µM and > 100 µM in experiment [5]; 50 µM and > 100 µM in [6]; 7.91 µM and 15.6 µM in experiment [7]. In addition, the TGI is 0.763 µM and 1.01 µM in [8]; 0.0888 µM and 0.143 µM in experiment [10].

`Cc1cccc(NC(=O)c2cccc([N+](=O)[O-])c2O)c1C`: the TGI in [1] was > 100 µM; in [2] it was > 100 µM; in [3] it was 81.2 µM; in experiment [4], > 100 µM; in [5], 46.9 µM; in [6] it was > 100 µM. Further, the TGI was > 100 µM in experiment [7], > 72.8 µM in experiment [8], 49.7 µM in experiment [9] and > 100 µM in experiment [10].
